# Experimental data from US20240270809A1, “ORAL GLP RECEPTOR AGONISTS” (priority 2020, published 2024).
# pEC50: −log10 of the molar value. Like-named read-outs stand apart in the source and are kept apart here. Positions of bridges follow the written chain, without caps; N, C: chain ends. Non-standard residues stand in square brackets, D forms with d. Residues, ends and D or L forms follow the SMILES beside them. *: point of attachment. Malonyl(2,2-Me2,histaminyl) = CC(C)(C(=O)NCCc1cnc[nH]1)C(=O)*; Ala(1H-tetrazol-5-yl) = N[C@@H](Cc1nnn[nH]1)C(=O)O; αMeL = CC(C)C[C@](C)(N)C(=O)O; Nle = CCCC[C@H](N)C(=O)O; Aib = CC(C)(N)C(=O)O
# Assays:
# [1] = biological target: T1, human GLP2 receptor (Homo sapiens, UniProt O95838); experiment: cAMP accumulation assay, functional agonism of human GLP2 receptor; format: cell-based; settings: HEK cells infected with human GLP2 receptor BacMam virus, HTRF cAMP; for Emax: HEK293, read-out: Human GLP-2R agonist cAMP Emax; for EC50: read-out: Human GLP-2R agonist cAMP pEC50 (converted)
# T1 construct: expressed in transfected cells; host or cells: HEK cells, BacMam virus transduction
# T1 sequence (O95838 1-553): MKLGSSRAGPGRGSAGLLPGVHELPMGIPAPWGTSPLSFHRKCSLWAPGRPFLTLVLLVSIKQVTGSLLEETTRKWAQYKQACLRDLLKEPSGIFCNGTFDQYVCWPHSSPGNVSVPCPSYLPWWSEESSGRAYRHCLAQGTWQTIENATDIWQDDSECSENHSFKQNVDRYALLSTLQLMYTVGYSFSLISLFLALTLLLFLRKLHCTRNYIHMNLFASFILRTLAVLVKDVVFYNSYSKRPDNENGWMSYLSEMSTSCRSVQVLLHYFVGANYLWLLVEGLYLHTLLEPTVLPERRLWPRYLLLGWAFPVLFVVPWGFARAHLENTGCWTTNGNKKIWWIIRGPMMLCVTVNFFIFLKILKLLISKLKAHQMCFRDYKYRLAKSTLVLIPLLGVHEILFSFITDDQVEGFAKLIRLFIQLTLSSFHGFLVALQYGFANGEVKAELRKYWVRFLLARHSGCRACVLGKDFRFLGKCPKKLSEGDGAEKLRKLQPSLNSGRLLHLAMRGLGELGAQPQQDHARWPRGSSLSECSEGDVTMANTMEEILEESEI
# Summary of the method: (§1)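 Agonist-driven cAMP production was quantified by homogeneous time-resolved fluorescence. Receptor expression in HEK cells came from a 24-hour BacMam infection, and cells were frozen ahead of the assay. Incubation lasted 45 min at 37° C in HBSS supplemented with 0.5 mM IBMX.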
# [2] = biological target: T2, human GLP1 receptor (Homo sapiens, UniProt P43220); experiment: cAMP accumulation assay, functional agonism of human GLP1 receptor; format: cell-based; settings: HEK cells infected with human GLP1 receptor BacMam virus, HTRF cAMP; for Emax: HEK293, read-out: Human GLP-1R agonist cAMP Emax; for EC50: read-out: Human GLP-1R agonist cAMP pEC50 (converted)
# T2 construct: expressed in transfected cells; host or cells: HEK cells, BacMam virus transduction
# T2 sequence (P43220 24-463): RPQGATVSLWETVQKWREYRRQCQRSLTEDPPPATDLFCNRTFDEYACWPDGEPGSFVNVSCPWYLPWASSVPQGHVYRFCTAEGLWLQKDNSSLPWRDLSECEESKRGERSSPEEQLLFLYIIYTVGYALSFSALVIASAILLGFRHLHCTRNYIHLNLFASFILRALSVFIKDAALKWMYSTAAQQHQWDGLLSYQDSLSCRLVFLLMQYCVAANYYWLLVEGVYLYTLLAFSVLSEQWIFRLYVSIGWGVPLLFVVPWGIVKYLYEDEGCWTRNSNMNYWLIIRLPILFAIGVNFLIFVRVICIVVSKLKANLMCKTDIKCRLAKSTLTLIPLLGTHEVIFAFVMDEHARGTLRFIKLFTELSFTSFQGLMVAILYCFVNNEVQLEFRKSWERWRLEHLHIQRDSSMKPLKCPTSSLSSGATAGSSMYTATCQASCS
# Summary of the method: as §1
# [3] = biological target: T3, mouse GLP2 receptor (Mus musculus, UniProt Q5IXF8); experiment: cAMP accumulation assay, functional agonism of mouse GLP2 receptor; format: cell-based; settings: for EC50: read-out: Mouse GLP-2R agonist cAMP pEC50 (converted)
# T3 construct: expressed in transfected cells; host or cells: HEK cells, transient transfection with GeneJuice
# T3 sequence (Q5IXF8 1-512): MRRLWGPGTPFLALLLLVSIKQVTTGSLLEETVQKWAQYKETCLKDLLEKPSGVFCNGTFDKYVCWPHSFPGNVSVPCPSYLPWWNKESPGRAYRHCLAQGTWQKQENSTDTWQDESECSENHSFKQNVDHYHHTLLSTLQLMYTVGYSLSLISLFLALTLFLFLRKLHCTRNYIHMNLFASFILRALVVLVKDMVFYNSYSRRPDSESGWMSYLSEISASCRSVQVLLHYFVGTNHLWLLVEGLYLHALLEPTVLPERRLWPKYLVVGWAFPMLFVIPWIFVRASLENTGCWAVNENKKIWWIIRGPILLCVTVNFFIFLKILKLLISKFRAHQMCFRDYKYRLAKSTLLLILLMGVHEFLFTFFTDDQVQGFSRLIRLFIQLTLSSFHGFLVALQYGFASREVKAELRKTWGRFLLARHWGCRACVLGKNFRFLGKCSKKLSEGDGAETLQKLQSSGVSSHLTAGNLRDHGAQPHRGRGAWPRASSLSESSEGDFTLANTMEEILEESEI
# Summary of the method: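 pEC50 values come from four-parameter fits of HTRF cAMP signal, read after lysis and 1 h RT incubation. Compounds were incubated 45 min at 37 °C with previously frozen, transiently transfected HEK cells (8000/well) in HBSS containing 0.5 mM IBMX.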
# [4] = biological target: T4, mouse GLP1 receptor (Mus musculus, UniProt O35659); experiment: cAMP accumulation assay, functional agonism of mouse GLP1 receptor; format: cell-based; settings: for EC50: read-out: Mouse GLP-1R agonist cAMP pEC50 (converted)
# T4 construct: expressed in transfected cells; host or cells: HEK cells, transient transfection with GeneJuice
# T4 sequence (O35659 22-463): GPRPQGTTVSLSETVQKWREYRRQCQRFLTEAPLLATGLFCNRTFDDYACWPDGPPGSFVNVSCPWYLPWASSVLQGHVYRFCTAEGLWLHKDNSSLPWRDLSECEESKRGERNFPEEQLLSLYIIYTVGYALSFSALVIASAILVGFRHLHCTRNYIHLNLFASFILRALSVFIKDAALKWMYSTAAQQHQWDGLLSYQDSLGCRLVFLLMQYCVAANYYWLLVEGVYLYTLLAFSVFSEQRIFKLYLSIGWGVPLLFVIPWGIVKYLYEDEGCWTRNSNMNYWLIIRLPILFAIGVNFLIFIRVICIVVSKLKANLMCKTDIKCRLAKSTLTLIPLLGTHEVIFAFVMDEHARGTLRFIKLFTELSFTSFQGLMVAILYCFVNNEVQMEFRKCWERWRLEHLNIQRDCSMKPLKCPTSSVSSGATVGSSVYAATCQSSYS
# Method: CAMP production upon agonist stimulation of mouse GLP2 or GLP1 receptors was assessed utilizing HiRange cAMP kit (Cisbio). In brief, HEK cells were transiently transfected for 24 hours with cDNA using GeneJuice Transfection reagent (EMD Millipore) and frozen at −80° C. for later use in the assay. […] Cells were prepared in the assay buffer (HBSS (Lonza) supplemented with 0.5 mM IBMX (Tocris)). After 45 min incubation at 37° C., the reaction was stopped by addition of the HTRF detection reagents in the lysis buffer provided in the kit. Following 1-hour incubation at RT, plates were read on Pherastar FS (BMG Labtech, Inc.) using standard HTRF settings. Dotmatics Studies software was used for calculation of pEC50 values by fitting data to a four-parameter concentration response curve.
# [5] = Stability of peptides in Fasted-State Simulated Intestinal Fluid (FaSSIF); format: in vitro ADME; settings: FaSSIF with 10 mg/ml pancreatin, 37° C.; for remaining at 0.25 h: FaSSIF pH 6.5 with 10 mg/ml pancreatin, t = 15 mins
# [6] = HEK293, HEK cells transiently transfected with mouse GLP2 receptor, HTRF cAMP, read-out: Mouse GLP-2R agonist cAMP Emax
# [7] = HEK cells transiently transfected with mouse GLP2 receptor, HTRF cAMP
# [8] = HEK293, HEK cells transiently transfected with mouse GLP1 receptor, HTRF cAMP, read-out: Mouse GLP-1R agonist cAMP Emax
# [9] = HEK cells transiently transfected with mouse GLP1 receptor, HTRF cAMP
Emax [1],EC50 [1],Emax [2],EC50 [2],"Emax [3, 6]","EC50 [3, 7]","Emax [4, 8]","EC50 [4, 9]","remaining at 0.5 h ([5]; t=30 mins, pH 6.5, 10 mg/ml pancreatin)",remaining at 0.25 h [5],Structure (SMILES),pEC50 [3],"Emax ([3]; HEK293, read-out: Mouse GLP-2R agonist cAMP Emax)",pEC50 [4],"Emax ([4]; HEK293, read-out: Mouse GLP-1R agonist cAMP Emax)"
103%,0.398 nM,90.1%,0.794 nM,97.7%,10 nM,91.5%,0.126 nM,5%,–,"CCCC[C@@H]1NC(=O)[C@H](CCC(=O)O)NC(=O)[C@@H](NC(=O)[C@H](CO)NC(=O)[C@H](Cc2ccccc2)NC(=O)[C@H](CO)NC(=O)CNC(=O)[C@H](Cc2nn[nH]n2)NC(=O)C(C)(C)C(=O)NCCc2c[nH]cn2)CCCCNC(=O)C[C@@H](C(=O)N[C@H](C(=O)N[C@@H](CC(C)C)C(=O)N[C@@H](CC(=O)O)C(=O)N[C@H]2CC(=O)NCCCC[C@@H](C(=O)N[C@@H](CC(=O)O)C(=O)N[C@@H](Cc3ccccc3)C(=O)N[C@H](C(=O)N[C@@H](CC(N)=O)C(=O)N[C@@H](Cc3c[nH]c4ccccc34)C(=O)N[C@@H](CC(C)C)C(=O)N[C@H](C(=O)N[C@@H](CCC(N)=O)C(=O)N[C@H](C(=O)N[C@H]3CCC(=O)NCCCC[C@@H](C(N)=O)NC(=O)[C@H]([C@@H](C)O)NC(=O)[C@H]([C@@H](C)CC)NC3=O)[C@@H](C)O)[C@@H](C)CC)[C@@H](C)CC)NC(=O)[C@H](C)NC(=O)[C@H](C)NC(=O)[C@H](CCCCN)NC2=O)[C@@H](C)CC)NC(=O)[C@@H](Cc2ccccc2)NC1=O [Example 1] ({Malonyl(2,2-Me2,histaminyl)}-[Ala(1H-tetrazol-5-yl)]GSFSKE[Nle][dF]DILDDKAAKDFINWLIQTEITK-NH2; lactam 6-10, 14-18, 28-31)",–,–,–,–
102%,0.00251 nM,98.7%,2.51 nM,99.2%,0.00631 nM,91.4%,0.631 nM,–,1.7%,CCCC[C@H](NC(=O)[C@H](CCC(=O)O)NC(=O)[C@H](CC(=O)O)NC(=O)[C@H](CO)NC(=O)[C@H](Cc1ccccc1)NC(=O)[C@H](CO)NC(=O)CNC(=O)[C@H](CC(=O)O)NC(=O)C(C)(C)NC(=O)[C@@H](N)Cc1c[nH]cn1)C(=O)N[C@H](Cc1ccccc1)C(=O)N[C@H]1CCC(=O)NCCCC[C@@H](C(=O)N[C@@H](CCCCN)C(=O)N[C@@H](C)C(=O)N[C@@H](C)C(=O)N[C@@H](CCCCN)C(=O)N[C@@H](CC(=O)O)C(=O)N[C@@H](Cc2ccccc2)C(=O)N[C@H](C(=O)N[C@@H](CC(N)=O)C(=O)N[C@@H](Cc2c[nH]c3ccccc23)C(=O)N[C@@H](CC(C)C)C(=O)N[C@H](C(=O)N[C@@H](CCC(N)=O)C(=O)N[C@H](C(=O)N[C@@H](CCCCN)C(=O)N[C@H](C(=O)N[C@H](C(=O)N[C@@H](CC(=O)O)C(N)=O)[C@@H](C)O)[C@@H](C)CC)[C@@H](C)O)[C@@H](C)CC)[C@@H](C)CC)NC(=O)[C@H](CC(=O)O)NC(=O)[C@H](CC(C)C)NC(=O)[C@H]([C@@H](C)CC)NC1=O [Example 87] (H-H[Aib]DGSFSDE[Nle][dF]EILDKKAAKDFINWLIQTKITD-NH2; lactam 12-16 (inferred); C-terminus assumed),–,–,–,–
102%,0.00316 nM,99.2%,1.26 nM,98.7%,0.00631 nM,96.4%,0.1 nM,–,0.5%,CCCC[C@H](NC(=O)[C@H](CCC(=O)O)NC(=O)[C@H](CC(=O)O)NC(=O)[C@H](CO)NC(=O)[C@H](Cc1ccccc1)NC(=O)[C@H](CO)NC(=O)CNC(=O)[C@H](CC(=O)O)NC(=O)C(C)(C)NC(=O)[C@@H](N)Cc1c[nH]cn1)C(=O)N[C@H](Cc1ccccc1)C(=O)N[C@H]1CCCCNC(=O)C[C@@H](C(=O)N[C@@H](CCCCN)C(=O)N[C@@H](C)C(=O)N[C@@H](C)C(=O)N[C@@H](CCCCN)C(=O)N[C@@H](CC(=O)O)C(=O)N[C@@H](Cc2ccccc2)C(=O)N[C@H](C(=O)N[C@@H](CC(N)=O)C(=O)N[C@@H](Cc2c[nH]c3ccccc23)C(=O)N[C@@H](CC(C)C)C(=O)N[C@H](C(=O)N[C@@H](CCC(N)=O)C(=O)N[C@H](C(=O)N[C@@H](CCCCN)C(=O)N[C@H](C(=O)N[C@H](C(=O)N[C@@H](CC(=O)O)C(N)=O)[C@@H](C)O)[C@@H](C)CC)[C@@H](C)O)[C@@H](C)CC)[C@@H](C)CC)NC(=O)[C@H](CC(=O)O)NC(=O)[C@H](CC(C)C)NC(=O)[C@H]([C@@H](C)CC)NC1=O [Example 88] (H-H[Aib]DGSFSDE[Nle][dF]KILDDKAAKDFINWLIQTKITD-NH2; lactam 12-16),–,–,–,–

Structure (SMILES),Emax [1],EC50 [1],Emax [2],EC50 [2],"Emax [3, 6]","EC50 [3, 7]","Emax [4, 8]","EC50 [4, 9]","remaining at 0.5 h ([5]; t=30 mins, pH 6.5, 10 mg/ml pancreatin)",remaining at 0.25 h [5],pEC50 [3],"Emax ([3]; HEK293, read-out: Mouse GLP-2R agonist cAMP Emax)",pEC50 [4],"Emax ([4]; HEK293, read-out: Mouse GLP-1R agonist cAMP Emax)"
"CCCC[C@H](NC(=O)[C@H](CCC(=O)O)NC(=O)[C@H](CC(=O)O)NC(=O)[C@H](CO)NC(=O)[C@H](Cc1ccccc1)NC(=O)[C@H](CO)NC(=O)[C@@H](C)NC(=O)[C@H](Cc1nn[nH]n1)NC(=O)C(C)(C)C(=O)NCCc1c[nH]cn1)C(=O)N[C@H](Cc1ccccc1)C(=O)N[C@H](C(=O)N[C@@](C)(CC(C)C)C(=O)N[C@@H](CC(C)C)C(=O)N[C@@H](CC(=O)O)C(=O)N[C@H]1CCC(=O)NCCCC[C@@H](C(=O)N[C@@H](CC(=O)O)C(=O)N[C@@H](Cc2ccccc2)C(=O)N[C@H](C(=O)N[C@H]2CCC(=O)NCCCC[C@@H](C(=O)N[C@H](C(=O)N[C@@H](CCCCN)C(N)=O)[C@@H](C)O)NC(=O)[C@H]([C@@H](C)CC)NC(=O)[C@H](CC(C)C)NC(=O)[C@H](Cc3c[nH]c4ccccc34)NC2=O)[C@@H](C)CC)NC(=O)[C@H](C)NC(=O)[C@H](C)NC(=O)[C@H](CCCCN)NC1=O)[C@@H](C)O [Example 117] ({Malonyl(2,2-Me2,histaminyl)}-[Ala(1H-tetrazol-5-yl)][dA]SFSDE[Nle][dF]T[αMeL]LDEKAAKDFIEWLIKTK-NH2; lactam 14-18, 22-26; C-terminus assumed)",103%,0.00316 nM,94.7%,0.126 nM,–,–,–,–,–,–,9.80,99.3%,10.10,96.9%
